Data: patent publication US8247429B2, “Tricyclic compound and pharmaceutical use thereof” (Takeda Pharmaceutical Company Limited, priority 2006, dated 2012)

Key:
[1] = biological target: T1, human melatonin 1 receptors (human MT1 receptors) (Homo sapiens, UniProt P48039); assay: Melatonin receptor binding inhibitory test (2-[125I] Iodomelatonin), MT1; conditions: membrane fraction of CHO-hMelR7 cells, 25° C. for 2.5 hr
T1 construct: expressed in transfected cells; membrane fraction used
Description: (§1) Melatonin receptor binding inhibitory test
(1) Preparation of CHO-hMelR7 Cells Expressing Human Melatonin 1 Receptors
A cDNA fragment (SEQ ID NO: 1) encoding full-length of human melatonin 1 receptors (human MT1 receptors) was incorporated into expression vector pAKKO-111H (former name pAKKO1.11H; Biochim Biophys Acta. Vol. 1219(2), pp. 251-259, 1994) to give plasmid pAKKO-hMelR7 for animal cell expression. CHO/dhfr-cells (ATCC, #CRL-9096) were plated at a concentration of 0.3×10^6 cells/dish in a 6 cm culture dish (Becton Dickinson), and cultured under the conditions of 37° C., 5% CO2 for 48 hr. The cells were transfected with pAKKO-hMelR7 plasmid DNA (5 μg) using Cellphect Transfection Kit (Amersham, #27-9268-01). The transfected cells were cultured in Dulbecco's modified Eagle medium (DMEM) (Sigma, #D6046) containing 10% dialyzed FBS (Biowest, #S180D), 1× Non-Essential Amino Acid (Invitrogen, #11140-050) and 50 μg/mL Gentamycin (Invitrogen, #15750-060), and the cell line that stably expressed the plasmid gene was selected. By a receptor binding assay using 2-[^125I] Iodomelatonin, CHO-hMelR7 cell line showing specific binding of 2-[^125I] Iodomelatonin was selected from the obtained clones.
(§2) (3) Preparation of Cellular Membrane Fraction of CHO Cell (CHO-hMelR7 and CHO-hMT2) Stably Expressing Human MT1 and MT2 Receptors
(§3) CHO-hMelR7 and CHO-hMT2 cells were plated using Cellfactory (Nunc, #170009) under the conditions of 1×10^8 cells/2000 mL/flask. The cells were grown to confluent, and recovered by the following method. As the medium for CHO-hMelR7 and CHO-hMT2, MEM α containing 10% FBS and penicillin/streptomycin was used. […] of geneticin was added to the medium for CHO-hMT2.
(§4) The medium was discarded, cells were washed twice with 200 mL of EDTA/PBS(−), 200 mL of EDTA/PBS(−) was further added, and the cells were stood still at room temperature for 20 min until they were released. The cells were recovered in four 50 mL tubes (Becton Dickinson, #352070), and centrifuged at 1,500 rpm for 10 min at 4° C. using a low speed cooling centrifuge (Hitachi, CF7D2). The supernatant was discarded, the pellets in the four tubes were suspended in 10 mL of PBS(−), and combined in one tube (Becton Dickinson, #352070). The mixture was further centrifuged at 1,500 rpm for 10 min at 4° C., and the obtained pellets were suspended in 20 mL of ice-cooled homogenizing buffer [10 mM NaHCO3, 5 mM EDTA, Protease inhibitor Complete (Roche), pH 7.4]. The cell suspension was homogenized 3 times using a polytron homogenizer at 20,000 rpm for 30 sec. The obtained homogenate was centrifuged (2,000 rpm, 10 min, 4° C.) using a low speed cooling centrifuge. The supernatant was recovered in an ultracentrifugation tube and ultracentrifuged (40,000 rpm, 60 min, 4° C.) using an ultracentrifuge (Beckman, L-90K). To the obtained pellets was added a suspending buffer [50 mM Tris-HCl, 1 mM EDTA, Protease inhibitor Complete (Roche), pH 7.4], and the pellets were suspended by pipetting. The protein concentration of this suspension was measured, diluted to 2 mg/mL to give cellular membrane fractions of CHO-hMelR7 and CHO-hMT2 cells. The membrane fractions were dispensed to 1.5 mL tubes (Eppendorf, #0030120.086) by 100 μL, preserved in a freezer (−80° C.) and used for a binding assay. Protein was quantified using BCA protein assay kit (Pierce) with BSA as the standard.
(§5) (4) Preparation of Membrane Fraction Suspension
(§6) Immediately before use, the membrane fractions of CHO-hMelR7 and CHO-hMT2 cells of the above-mentioned (3) were diluted 20-fold with assay buffer (50 mM Tris-HCl, pH 7.7).
(§7) (5) Preparation of 2-[^125I] Iodomelatonin Solution
(§8) 2-[^125I] Iodomelatonin (#NEX236, PerkinElmer) was diluted with the assay buffer to 400 pM for MT1 and 1 nM for MT2.
(§9) The assay buffer (80 μL) of the above-mentioned (4) was added to each well of a 96-well plate (type 3363, Corning). […]

[2] = biological target: T2, human melatonin 2 receptors (human MT2 receptors) (Homo sapiens, UniProt P49286); assay: Melatonin receptor binding inhibitory test (2-[125I] Iodomelatonin), MT2; conditions: membrane fraction of CHO-hMT2 cells, 25° C. for 2.5 hr
T2 construct: expressed in transfected cells; membrane fraction used
T2 sequence (P49286 1-362): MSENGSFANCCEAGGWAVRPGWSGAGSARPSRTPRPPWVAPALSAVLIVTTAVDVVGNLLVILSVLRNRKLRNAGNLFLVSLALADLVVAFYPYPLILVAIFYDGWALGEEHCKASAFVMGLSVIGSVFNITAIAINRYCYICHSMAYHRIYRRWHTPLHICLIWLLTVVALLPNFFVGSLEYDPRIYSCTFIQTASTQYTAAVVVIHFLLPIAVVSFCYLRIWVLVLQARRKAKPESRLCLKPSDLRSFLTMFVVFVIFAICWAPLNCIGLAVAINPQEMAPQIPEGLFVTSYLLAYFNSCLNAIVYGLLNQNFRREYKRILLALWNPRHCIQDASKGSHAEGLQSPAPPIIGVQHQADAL
Description: as §1
(2) Preparation of CHO-hMT2 Cells Expressing Human Melatonin 2 Receptors
A cDNA fragment (SEQ ID NO: 2) encoding full-length of human melatonin 2 receptors (human MT2 receptors) was incorporated into expression vector pCMV-Script (Stratagene, #212220) to give the plasmid that was pCMV-human MT2 receptors expression vector for animal cell expression. CHO-K1 cells (ATCC, #CCL-61) were plated at the concentration of 1.5×10^5 cells/cm^2 in a 6 well plate (ASAHI TECHNO GLASS), and cultured under the conditions of 37° C., 5% CO2 for 24 hr. For gene transfection, solution obtained by blending pCMV-human MT2 receptors expression vector (1.9 μg), Lipofectamine Transfection Reagent (Invitrogen, #18324-012) (11.3 μL) and Minimum Essential Medium Eagle (MEM) medium (Sigma, M8042) (93.8 μL), and reacting at room temperature for 20 min was added to the cells per one well. The transfected cells were cultured in MEM medium containing 10% FBS (Life Technology) and 300 μg/mL Geneticin (GIBCO, #10131), and the cell line that stably expressed the plasmid gene was selected. By a receptor binding assay using 2-[^125I] Iodomelatonin, CHO-hMT2 cell line showing specific binding of 2-[^125I] Iodomelatonin was selected from the obtained clones.
as §2, §3, §4, §5, §6, §7, §8, §9

T1 sequence (P48039 whole entry): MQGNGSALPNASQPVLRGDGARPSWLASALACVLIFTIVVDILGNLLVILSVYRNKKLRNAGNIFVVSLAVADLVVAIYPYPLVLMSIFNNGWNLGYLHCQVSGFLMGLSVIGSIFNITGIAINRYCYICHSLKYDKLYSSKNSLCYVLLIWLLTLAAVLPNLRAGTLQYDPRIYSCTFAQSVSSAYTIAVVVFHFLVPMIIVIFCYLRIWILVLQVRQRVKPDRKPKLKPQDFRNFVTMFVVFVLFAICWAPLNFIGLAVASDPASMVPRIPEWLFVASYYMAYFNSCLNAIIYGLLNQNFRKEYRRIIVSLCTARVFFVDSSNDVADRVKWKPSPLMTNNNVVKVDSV

| Compound | IC50 [1] [nM] | IC50 [2] [nM] | melting point [°C] |
| --- | --- | --- | --- |
| CC(=O)NCCC1CCc2ccn3nc(C)c(C)c3c21 (stereo not drawn) [Example 14, N-[2-(1,2-dimethyl-8,9-dihydro-7H-cyclopenta[c]pyrazolo[1,5-a]pyridin-9-yl)ethyl]acetamide] | ≤ 100 | ≤ 100 | 134 to 135 |
| CC(=O)NCC[C@@H]1CCc2ccc3nn(C)c(Cl)c3c21 [Example 24, N-{2-[(8S)-1-chloro-2-methyl-2,6,7,8-tetrahydrocyclopenta[e]indazol-8-yl]ethyl}acetamide] | ≤ 100 | ≤ 100 | 168 to 171 |
| CCC(=O)NCCC1CCc2c(F)cc3nn(C)cc3c21 (stereo not drawn) [Example 29, N-[2-(5-fluoro-2-methyl-2,6,7,8-tetrahydrocyclopenta[e]indazol-8-yl)ethyl]propanamide] | ≤ 100 | ≤ 100 | 117 to 119 |
| CC(=O)NCC=C1CCc2ccc3nn(C)c(C)c3c21 [Example 7, N-[2-(1,2-dimethyl-6,7-dihydrocyclopenta[e]indazol-8(2H)-ylidene)ethyl]acetamide] | ≤ 100 | ≤ 100 | 200 to 203 |
| CC(=O)NCCC1CCc2c(F)cc3nn(C)cc3c21 (stereo not drawn) [Example 28, N-[2-(5-fluoro-2-methyl-2,6,7,8-tetrahydrocyclopenta[e]indazol-8-yl)ethyl]acetamide] | ≤ 100 | ≤ 100 | 116 to 119 |
